{"source": "paper PMC8399023", "about": "(Molecules, 2021)", "conditions": "24 h, pH 7.4", "data": [{"smiles": "CC(=O)N1CCC(NC(=O)NC23CC4CC(CC(C4)C2)C3)CC1", "note": "[AR9281]", "values": [{"measurement": "Solubility", "value": 277, "unit": "µg/mL"}]}]}
